Test results: patent US12251382B2, “Substituted amino-pyrimidine compound for use in a method for treatment and prevention of multiple sclerosis” (Merck Patent GmbH, priority 2018, dated 2025)

How the values were obtained:
[1] = Phase I Part 2 (multiple ascending dose study): safety and tolerability, TEAEs; assay type: in vivo, human
Description: The decision whether to initiate Part 2 of the study, as well as the MAD starting dose, was determined by the SMC based on review of safety data from Part 1, with PK and PD data also used to inform the decision. Dose-limiting criteria and termination/stopping rules were as per Part 1 of the study. […] Ultimately, dose levels of 25, 75, and 200 mg were selected.
Data were summarized using descriptive statistics.

[2] = Phase I Part 1: plasma pharmacokinetics after single oral dose; assay type: in vivo, human; settings: for MRT / AUC0−∞ / Cmax / T1/2: geometric mean
Description: To test dose proportionality, PK parameters were analyzed graphically as AUC/dose and Cmax/dose and via a power model (PK parameter=α*dose^β) approach with log-transformed PK parameters as the dependent variable and log-transformed dose as the independent variable.

[3] = Clinical trial of relative bioavailability of tablet vs powder-in-capsule incl. food effect in healthy volunteers; assay type: in vivo, human; settings: oral administration in proximity in time to food (fed vs fasted)
[4] = test system: B- and T-cell-mediated EAE mouse models; settings: cited from earlier work
[5] = test system: BCR- and FcR-mediated signalling; settings: variety of human cellular assays; cited from earlier work
[6] = Part 2, 25 mg once daily, 14 days
[7] = Part 2, 75 mg once daily, 14 days
[8] = Part 2, 200 mg once daily, 14 days
[9] = Part 2, pooled active, listed as evobrutinib

## C=CC(=O)N1CCC(CNc2ncnc(N)c2-c2ccc(Oc3ccccc3)cc2)CC1 [Evobrutinib, 1-(4-(((6-amino-5-(4-phenoxyphenyl)pyrimidin-4-yl)amino)methyl)piperidin-1-yl)prop-2-en-1-one]
[1]; Part 2
  Relation of gastrointestinal or other TEAEs to dose: No relation to dose was observed
  Severity of TEAEs and dose-limiting adverse events: mild and no dose-limiting adverse events were reported
[1]; [6]
  Abdominal discomfort, number of TEAEs: 1
  Abdominal discomfort, subjects: 1 (11.1) n (%)
  Abdominal pain, subjects: 0 (0.0) n (%)
  Application site irritation, subjects: 0 (0.0) n (%)
  Complex regional pain, number of TEAEs: 1
  Complex regional pain, subjects: 1 (11.1) n (%)
  Constipation, subjects: 0 (0.0) n (%)
  Dry throat, subjects: 0 (0.0) n (%)
  Excoriation, number of TEAEs: 1
  Excoriation, subjects: 1 (11.1) n (%)
  Fatigue, subjects: 0 (0.0) n (%)
  Headache, number of TEAEs: 1
  Headache, subjects: 1 (11.1) n (%)
  Muscle spasms, subjects: 0 (0.0) n (%)
  Muscle strain, number of TEAEs: 1
  Muscle strain, subjects: 1 (11.1) n (%)
  Nausea, subjects: 0 (0.0) n (%)
  Overall total TEAEs, subjects: 3 (33.3) n (%)
  Overall total, number of TEAEs: 6
  Rhinorrhea, number of TEAEs: 1
  Rhinorrhea, subjects: 1 (11.1) n (%)
  Sneezing, subjects: 0 (0.0) n (%)
  Toothache, subjects: 0 (0.0) n (%)
  Upper respiratory tract infection, subjects: 0 (0.0) n (%)
[1]; [7]
  Abdominal discomfort, subjects: 0 (0.0) n (%)
  Abdominal pain, number of TEAEs: 2
  Abdominal pain, subjects: 1 (11.1) n (%)
  Application site irritation, number of TEAEs: 1
  Application site irritation, subjects: 1 (11.1) n (%)
  Complex regional pain, subjects: 0 (0.0) n (%)
  Constipation, number of TEAEs: 1
  Constipation, subjects: 1 (11.1) n (%)
  Dry throat, number of TEAEs: 1
  Dry throat, subjects: 1 (11.1) n (%)
  Excoriation, subjects: 0 (0.0) n (%)
  Fatigue, number of TEAEs: 2
  Fatigue, subjects: 2 (22.2) n (%)
  Headache, number of TEAEs: 2
  Headache, subjects: 2 (22.2) n (%)
  Muscle spasms, number of TEAEs: 1
  Muscle spasms, subjects: 1 (11.1) n (%)
  Muscle strain, subjects: 0 (0.0) n (%)
  Nausea, number of TEAEs: 2
  Nausea, subjects: 1 (11.1) n (%)
  Overall total TEAEs, subjects: 7 (77.8) n (%)
  Overall total, number of TEAEs: 14
  Rhinorrhea, subjects: 0 (0.0) n (%)
  Sneezing, number of TEAEs: 1
  Sneezing, subjects: 1 (11.1) n (%)
  Toothache, subjects: 0 (0.0) n (%)
  Upper respiratory tract infection, number of TEAEs: 1
  Upper respiratory tract infection, subjects: 1 (11.1) n (%)
[1]; [8]
  Abdominal discomfort, subjects: 0 (0.0) n (%)
  Abdominal pain, subjects: 0 (0.0) n (%)
  Application site irritation, number of TEAEs: 1
  Application site irritation, subjects: 1 (11.1) n (%)
  Complex regional pain, subjects: 0 (0.0) n (%)
  Constipation, subjects: 0 (0.0) n (%)
  Dry throat, subjects: 0 (0.0) n (%)
  Excoriation, subjects: 0 (0.0) n (%)
  Fatigue, subjects: 0 (0.0) n (%)
  Headache, subjects: 0 (0.0) n (%)
  Muscle spasms, subjects: 0 (0.0) n (%)
  Muscle strain, subjects: 0 (0.0) n (%)
  Nausea, subjects: 0 (0.0) n (%)
  Overall total TEAEs, subjects: 3 (33.3) n (%)
  Overall total, number of TEAEs: 3
  Rhinorrhea, subjects: 0 (0.0) n (%)
  Sneezing, subjects: 0 (0.0) n (%)
  Toothache, number of TEAEs: 1
  Toothache, subjects: 1 (11.1) n (%)
  Upper respiratory tract infection, number of TEAEs: 1
  Upper respiratory tract infection, subjects: 1 (11.1) n (%)
[1]; Part 2, all evobrutinib doses
  Number of gastrointestinal TEAEs: Seven
  Subjects with fatigue: 7.4%
  Subjects with gastrointestinal TEAEs: 18.5%
  Subjects with headache: 11.1%
  Subjects with skin irritation due to ECG pads: 7.4%
  Subjects with upper respiratory tract infection: 7.4%
[1]; Part 2, multiple dosing, all evobrutinib doses
  Subjects with TEAEs: 48.1%
[1]; Part 2, pooled active
  Abdominal discomfort, number of TEAEs: 1
  Abdominal discomfort, subjects: 1 (3.7) n (%)
  Abdominal pain, number of TEAEs: 2
  Abdominal pain, subjects: 1 (3.7) n (%)
  Application site irritation, number of TEAEs: 2
  Application site irritation, subjects: 2 (7.4) n (%)
  Complex regional pain, number of TEAEs: 1
  Complex regional pain, subjects: 1 (3.7) n (%)
  Constipation, number of TEAEs: 1
  Constipation, subjects: 1 (3.7) n (%)
  Dry throat, number of TEAEs: 1
  Dry throat, subjects: 1 (3.7) n (%)
  Excoriation, number of TEAEs: 1
  Excoriation, subjects: 1 (3.7) n (%)
  Fatigue, number of TEAEs: 2
  Fatigue, subjects: 2 (7.4) n (%)
  Headache, number of TEAEs: 3
  Headache, subjects: 3 (11.1) n (%)
  Muscle spasms, number of TEAEs: 1
  Muscle spasms, subjects: 1 (3.7) n (%)
  Muscle strain, number of TEAEs: 1
  Muscle strain, subjects: 1 (3.7) n (%)
  Nausea, number of TEAEs: 2
  Nausea, subjects: 1 (3.7) n (%)
  Overall total TEAEs, subjects: 13 (48.1) n (%)
  Overall total, number of TEAEs: 23
  Rhinorrhea, number of TEAEs: 1
  Rhinorrhea, subjects: 1 (3.7) n (%)
  Sneezing, number of TEAEs: 1
  Sneezing, subjects: 1 (3.7) n (%)
  Toothache, number of TEAEs: 1
  Toothache, subjects: 1 (3.7) n (%)
  Upper respiratory tract infection, number of TEAEs: 2
  Upper respiratory tract infection, subjects: 2 (7.4) n (%)
[1]; [9]
  Application site irritation, number of TEAEs: two
  Fatigue, number of TEAEs: two
  Headache, number of TEAEs: three
  Upper respiratory tract infection, number of TEAEs: two
[2]; 350 and 500 mg, some (n=3) subjects
  Time after dosing up to which concentrations above LLOQ were measurable: up to 48 h
[2]; both sexes, human, plasma, oral, all doses, read-out: Relevant Vz/F
  Vd/F: ~650 L
[2]; human, plasma, oral, single dose 25 mg
  MRT: 1.82 h
[2]; human, plasma, oral, single dose 50 mg
  MRT: 1.82 h
[2]; human, plasma, oral, single dose 100 mg
  MRT: 1.7 h
[2]; human, plasma, oral, single dose 200 mg
  MRT: 1.8 h
[2]; human, plasma, oral, single dose 350 mg
  MRT: 2.26 h
[2]; human, plasma, oral, single dose 500 mg
  MRT: 2.19 h
[2]; humans
  PK profile in words (clearance, Vz/f, t1/2): moderate-to-high plasma clearance, medium Vz/f, and short t1/2
[2]; range across single doses
  Apparent clearance (CL/F): 2,553-3,995 mL/min
[2]; single dose 25 mg
  AUC0−∞: 104 ng·h/mL
  Cmax: 69.9 ng/mL
  T1/2: 1.80 h
[2]; single dose 50 mg
  AUC0−∞: 326 ng·h/mL
  Cmax: 234 ng/mL
  T1/2: 2.06 h
[2]; single dose 100 mg
  AUC0−∞: 434 ng·h/mL
  Cmax: 309 ng/mL
  T1/2: 2.56 h
[2]; single dose 200 mg
  AUC0−∞: 856 ng·h/mL
  Cmax: 555 ng/mL
  T1/2: 2.09 h
[2]; single dose 350 mg
  AUC0−∞: 1,910 ng * h/mL
  Cmax: 846 ng/mL
  T1/2: 6.81 h
[2]; single dose 500 mg
  AUC0−∞: 3,220 ng * h/mL
  Cmax: 1510 ng/mL
  T1/2: 6.63 h
[2]; single doses 25-200 mg
  Apparent geometric mean terminal half-life (t1/2): 1.8 to 2.6 h
[2]; single doses 350 and 500 mg
  Apparent geometric mean terminal half-life (t1/2): 6.6 to 6.8 h
[2]; within 8 h, dose-independent
  Plasma concentration remaining after Cmax: less than 1 % of Cmax
[2]; within the first 8 h, all doses
  Relevant t1/2: ~2 h
[3]
  Effect of food on bioavailability: significant increase in the bioavailability
[4]
  CNS inflammation, demyelination and disease severity (clinical scoring): potential to reduce CNS inflammation and demyelination and ameliorate disease severity
[5]
  BCR- and FcR-mediated signalling: potently inhibit
